Here are results for ten compounds from PubChem BioAssay (NCI).

Several values for one entry are separate records, joined by “and”; a condition that tells them apart may be missing. Equal entries are not always repeated.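 Exposure lasted 48 hours, with cells grown in 96-well plates and compounds tested at five concentrations. GI50 is the concentration that inhibits growth by half. At the TGI there is no net growth.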 Where a SMILES comes first, the peptide text is derived from it. [ ]: non-standard residue; d: D form. The star is where a group is joined. Bn2Val = CC(C)[C@@H](C(=O)*)N(Cc1ccccc1)Cc1ccccc1; NH(3,4-diMeO-benzyl) = COc1ccc(CN*)cc1OC; NMeV = CN[C@H](C(=O)O)C(C)C; dNMeA = CN[C@H](C)C(=O)O

Assay in all cases: inhibition of tumour cell growth, NCI panel, 48 h
The subject of assay [1] is A549 NSCLC.
In assay [2] the test system is CAKI-1 renal.
In assay [3] the test system is CCRF-CEM leukemia.
Assay [4] deals with HCC-2998 colon.
Assay [5] deals with HL-60(TB) leukemia.
The subject of assay [6] is HOP-62 NSCLC.
Assay [7] concerns K-562 leukemia.
Assay [8] concerns SF-295 CNS.
Assay [9] relates to TK-10 renal.
The subject of assay [10] is UO-31 renal.

On to `O=C1NC(=O)C2C(=O)NC(=O)C1C2(c1ccccc1)c1ccc(Cl)cc1` (stereo unspecified), for which the TGI in [1], in assay [2], in assay [3], in [4], in assay [5] and in assay [6] was more than 100 µM each time. The TGI in assay [7], in assay [8], in assay [9] and in assay [10] was more than 100 µM in each case.
Consider `CC1=C2[C@@H](CC1)[C@]1(C)O[C@@](C(C)C)(C[C@H]1OC(=O)[C@H](C)O)[C@H]2OC(=O)/C=C/c1ccccc1`, for which the GI50 is 12.5 µM in assay [1]; 6.12 µM in assay [2]; 16.2 µM in assay [3]; 13.4 µM in assay [4]; 13.5 µM in assay [5]; 13.9 µM in assay [6]. Also, the GI50 is 12.5 µM in [7], 11.5 µM in assay [8], 16.3 µM in assay [9] and 1.01 µM in assay [10]. Moreover, the TGI came to 28.9 µM in assay [1]; 26 µM in assay [2]; 41.9 µM in assay [3]; 28.2 µM in assay [4]; 39.5 µM in assay [5]; 29.3 µM in assay [6]. Further, the TGI was 49.8 µM in [7], 24.8 µM in assay [8], 32 µM in assay [9] and 18.7 µM in assay [10].
As to `O=C(O)c1cc(S(=O)(=O)N=NC=C2c3ccccc3N(O)c3ccccc32)ccc1O`, the TGI in assay [1] is more than 100 µM; in [2] it was more than 100 µM; in assay [3] it was 86 µM; in assay [4], 37.9 µM; in assay [5], 23.7 µM; in assay [6], 37.5 µM. Moreover, the TGI in assay [7] is more than 100 µM; in [8] it was 20.1 µM; in assay [9], 50 µM; in assay [10] it was 49.5 µM.
On to `O=C(O)Cc1c[nH]c2ccc(F)cc12`, for which the TGI in assay [1], in assay [2], in assay [3], in assay [4], in assay [5] and in assay [6] was more than 100 µM throughout. For the same compound, the TGI in assay [7], in assay [8], in assay [9] and in [10] was more than 100 µM each time.
In the case of `CN1CCN(Cc2ccc(NC(=O)c3cncc(C#Cc4cnc(N)c5ccccc45)c3)cc2C(F)(F)F)CC1`, the GI50 is 0.342 µM in assay [1]; 0.271 µM in assay [2]; 0.125 µM in [3]; 0.42 µM in [4]; 0.165 µM in assay [5]; 0.324 µM in [6]. Besides, the GI50 in [7] is 0.00333 µM; in assay [8], 0.486 µM; in [9], 0.466 µM; in [10], 0.436 µM. Also, the TGI in assay [1] is 0.93 µM; in assay [2] it was 0.7 µM; in [3], 1.44 µM; in assay [4] it was 0.878 µM; in assay [5], 0.665 µM; in assay [6], 1.25 µM. For the same compound, the TGI was 0.524 µM in assay [7], 0.955 µM in assay [8], 1 µM in assay [9] and 0.869 µM in assay [10].
For the compound `C/C(=N\NC(N)=S)c1ccc(C)cc1C`, the TGI in assay [1], in [2], in [3], in assay [4], in [5] and in [6] was more than 100 µM throughout. The TGI in assay [7], in [8], in assay [9] and in [10] was more than 100 µM in each case.
On to `O=S(=O)(O)C(O)/C=C/c1ccccc1` (stereo unspecified), for which the TGI in assay [1], in [2], in assay [3], in [4], in assay [5] and in assay [6] was more than 100 µM each time. The TGI in assay [7], in assay [8], in [9] and in assay [10] was more than 100 µM throughout.
`NS(=O)(=O)c1ccc(-n2nc(-c3ccc(Br)cc3)ccc2=O)cc1`: the GI50 in [1], in assay [2], in [3], in assay [4], in assay [5] and in assay [6] was more than 10 µM each time. For the same compound, the GI50 was 4.85 µM in assay [7], more than 10 µM in [8], more than 10 µM in [9] and more than 10 µM in assay [10]. The TGI in assay [1], in assay [2], in [3], in assay [4], in [5] and in assay [6] was more than 10 µM throughout. Also, the TGI in assay [7], in [8], in [9] and in assay [10] was more than 10 µM throughout.
In the case of `COc1ccc(CNC(=O)[C@@H](C)N(C)C(=O)[C@@H]2CCCN2C(=O)[C@H](C(C)C)N(C)C(=O)[C@@H](NC(=O)[C@H](C(C)C)N(Cc2ccccc2)Cc2ccccc2)C(C)C)cc1OC` (Bn2Val-V[NMeV]P[dNMeA]-{NH(3,4-diMeO-benzyl)}), the GI50 in assay [1] is 53.3 µM; in assay [2], 12.7 µM; in [3] it was 0.756 µM; in assay [6] it was 14.7 µM; in assay [7], 6.52 µM; in assay [8] it was 9.29 µM. The TGI was 50 µM and > 100 µM in assay [1]; 47 µM and 30.5 µM in assay [2]; 16.9 µM and 44.2 µM in assay [3]; 21.2 µM in assay [4]; 11 µM and 9.45 µM in assay [5]; 16.5 µM and 33.4 µM in assay [6]. Moreover, the TGI in assay [7] is 50 µM and > 100 µM; in assay [8], 13.8 µM and 23 µM; in [9], 50 µM and 61.6 µM; in assay [10] it was more than 100 µM.
For the compound `S=C1NCCN1C1=Nc2ccccc2CO1`, the GI50 in assay [1], in [2], in assay [3], in assay [4], in [5] and in assay [6] was more than 100 µM in each case. Further, the GI50 in [7], in assay [8], in [9] and in [10] was more than 100 µM throughout. Besides, the TGI in assay [1], in [2], in assay [3], in assay [4], in [5] and in assay [6] was more than 100 µM each time. In addition, the TGI in assay [7], in assay [8], in assay [9] and in assay [10] was more than 100 µM each time.
